# Laboratory results published in patent US12648948B2, “Methods and compositions for treating cancer” (UNITED STATES GOVERNMENT AS REPRESENTED BY THE DEPARTMENT …, priority 2017, dated 2026).
# How the values were obtained:
# GBM = conditions: cited from earlier work
# [1] = system: primary embryonic cultures and differentiated PC12 cells; conditions: at dosages that inhibit activation of JNKs, after trophic withdrawal; cited from earlier work
# EGFR = assay: Western blot, EGFR activation in U87EGFRwt cells; format: cell-based, human; conditions: serum starved, cetuximab overnight, EGF 50 ng/ml 15 min
# ERK = assay: Western blot, ERK activation (pERK) in glioma cells; conditions: U87EGFRwt cells, serum starved; cetuximab overnight; EGF 50 ng/ml 15 min
# Experimental: Western blot analysis was performed according to standard protocols. In all experiments, before the addition of EGF or erlotinib established cells were cultured overnight in serum free DMEM and primary GBM neurospheres were EGF starved overnight. Cells not treated with EGF or erlotinib were also serum or EGF starved.
# [2] = system: GBM9 and GBM39 neurospheres; assay: AlamarBlue cell viability assay, patient derived GBM neurospheres; format: cell-based, human; conditions: 72 h; for Cell viability, inhibitor combined with erlotinib: erlotinib 100 nM, SP600125, U0126, R428, thalidomide 1 μM, Enbrel 100 nM; for Cell viability, inhibitor alone: without erlotinib, 1 μM
# Experimental: (§1) Cell viability assay was conducted using AlamarBlue cell viability assay kit (ThermoFisher) following manufacturer's protocol. Cells were cultured in Corning 96-well black plates with clear bottom (5000 cells/well). Drugs were added to cells for 72 hour following detection using POLARstar Omega Microplate Reader (excitation at 544 nm and emission at 590 nm) (BMG LABTECH, Germany).
# [3] = system: U87EGFRwt and U87EGFRvIII cells; assay: AlamarBlue cell viability assay, established GBM cell lines; format: cell-based, human; conditions: established GBM cell lines, 72 h; for Cell viability, inhibitor alone: without erlotinib
# Experimental: as §1
# GBM9 cells = assay: Annexin-FACS assay and Caspase 3/7 activation; format: cell-based, human; conditions: GBM9 cells, 72 h, Annexin-FACS
# Experimental: Annexin assay was performed by using Annexin—V-FLUOS Staining kit (Roche applied Science). Cells (1×10^6) were plated in 6 well plates and treated with drugs or vehicle alone. After 72 hours cells were trypsinized and washed 2 times with 1×PBS. The cells were incubated for 15 minutes at room temperature with Propidium Iodide and Annexin—V-FLUOS labeling solution in incubation buffer. Annexin and/or PI positive cells were detected by Flow Cytometry.
# Caspase activity in the supernatant was measured using the Caspase-Glo 3/7 Assay (Promega, G8091) following manufacturer's instructions. Briefly, 72 hours after treatments, cells were washed by cold PBS and total cell lysates were prepared. 50 μg of total protein per sample was added per well of a 96 well plate and was incubated with 100 μl Caspase 3/7 reagent for 30 minutes. The luminescence of each sample was measured using a luminometer. All experiments included at least 3 replicates per group and were repeated 3 times.
# [4] = system: JNK-Axl-ERK signaling pathway; assay: Western blot, erlotinib-induced JNK-Axl-ERK signaling pathway in glioma cells; format: cell-based, human; conditions: GBM9, GBM39 neurospheres and U87EGFRwt cells
# Experimental: Western blot analysis was performed according to standard protocols.
# TNF = TNF mRNA (qRT-PCR) and TNF ELISA in glioma cells; format: cell-based, human; conditions: GBM9 and U87EGFRwt, thalidomide 1 μM
# Experimental: Total RNA was isolated by TRIzol Reagent (Ambion). cDNA Reverse Transcription were performed by using High-Capacity cDNA Reverse Transcription Kit (Applied Biosystems). PCR primers were synthesized by IDT (Coralville, IA). Each PCR was carried out in triplicate in a 20 μl volume using SYBR Green Master Mix (Applied Biosystems) for 15 minutes at 95° C. for initial denaturing, followed by 40 cycles of 95° C. for 15 s and 60° C. for 60 s in ViiA 7 Real-Time PCR System (Applied Biosystems). At least two independent experiments were done. Values for each gene were normalized to expression levels of GAPDH mRNA.
# 2×10^6 cells were incubated in serum-free or EGF free medium containing different concentrations of erlotinib or DMSO. After 48 hours, supernatant and cell lysates were collected. Supernatant medium was concentrated 5-10-fold with Pierce protein concentrator (ThermoFisher). TNF protein concentration in supernatant, cell lysates and tissue extracts was determined by ELISA using a commercial TNF detection kit (ThermoFisher) according to manufacturer's instructions. Additionally, GAS6 protein concentration in supernatant was measured by ELISA kit (LifeSpan BioSciences).
# [5] = system: JNK-Axl-ERK signaling axis; assay: Signal transduction in intracranial GBM9 tumors (Western blot, IHC); format: in vivo, mice; conditions: thalidomide given with erlotinib
# Experimental: To detect the in vivo levels of TNF, 1×10^6 GBM9 cells were injected into the right flanks of nude mice. When the subcutaneous tumor reached a volume of around 200 mm^3, the mice were treated with erlotinib to monitor the upregulation of TNF protein. The animals were dosed consecutively for 1, 2, 7 or 14 days and then sacrificed. The animals without treatment were considered as control (0-day treatment). Tumor tissues were rinsed in PBS and protein was extracted to analyze the TNF levels using ELISA and also used for western blot. To detect the protein expression in mice brain tumor tissues upon drug treatment, the same procedure was performed in orthotopic models. Additionally, with orthotopic models, mice were divided into four groups (control gavage group, erlotinib group, thalidomide group and erlotinib plus thalidomide, n=3). After 48 hours treatment tumors were harvested and subjected to Western blot and immunostaining.
# Tumors from nude mice brains were fixed in 10% formalin and embedded in paraffin. Paraffin-embedded sections were cut at five-micrometer thickness. Immunohistochemical staining was performed using the ABC streptavidin-biotin method with the Vectastain ABC kit (Vector Laboratories, Burlingame, CA, USA) according to the manufacturer's protocol. Briefly, after deparaffinization and rehydration, endogenous peroxidase activity was quenched by a 10 min incubation in 3% H2O2. For antigen retrieval, the tissue sections were boiled in 10 mM sodium citrate buffer (pH 6.0) for 20 minutes. Binding of primary anti-pERK (1:100, Cell Signaling Technology, 4376) or anti-pJNK antibody (1:200, Cell signaling Technology, 4668) or anti-pAXL(1:400, R&D, AF2228) was carried out overnight at 4° C. The signal was detected by using the Sigmafast 3,3′-Diaminobenzidine tablets (DAB; Sigma, St. Louis MO). The sections were counterstained lightly with hematoxylin. The IHC staining intensity was scored semiquantitatively as: 0=No positive staining; 1=1-25% tumor cells stained, 2=26%-75% tumor cells stained and 3=>75% tumor cells stained.
# GBM9 subcutaneous tumors = assay: Subcutaneous GBM9 xenograft tumor growth; format: in vivo, athymic nude mice; conditions: erlotinib 50 mg/kg oral gavage, SP600125 40 mg/kg i.p., thalidomide 150 mg/kg i.p., daily for 10 days
# Experimental: 4 to 6 weeks old female athymic nude mice were purchased from Charles River Laboratories. The mice were housed in plastic cages (4-5 mice per cage) in a room with a 12 hour day-night cycle. 1×10^6 GBM9 cells were subcutaneously injected into the right flank of each nude mouse. […] The mice were randomly divided into control and treatment groups, mice were treated with drugs using the indicated doses. For combination treatment, both drugs were given concurrently for indicated periods. Tumor dimensions were measured by caliper every two days and tumor volumes calculated by the formula: volume=length×width×width/2. Mice were sacrificed when tumors reached over […] or 24 days from the first day of treatment.
# [6] = mouse, in vivo
# GBM9 intracranial tumors = assay: Orthotopic (intracranial) GBM9 model, survival and bioluminescence imaging; conditions: erlotinib 50 mg/kg oral gavage and/or thalidomide 150 mg/kg i.p., 10 days; repeated with afatinib
# Experimental: For the orthotropic model, 1×10^5 GBM9 cells expressing firefly luciferase were injected into the right corpus striatum of the brains of 6-8-week-old nude mice using a stereotactic frame. […] The mice were treated with erlotinib 50 mg/kg by oral gavage and/or intraperitoneal (i.p.) injection of 150 mg/kg thalidomide for 10 consecutive days. Bioluminescence imaging (BLI) was performed to record the growth of tumor every 5 days. Kaplan-Maier survival curves were calculated using GraphPad Prism 7.0 software. Mice were monitored and sacrificed when neurological signs appeared or after 40 days.
# [7] = single-arm phase II trial, GBM patients at first recurrence
compound,measurement,setting,value
COc1cc2ncnc(Nc3ccc(F)c(Cl)c3)c2cc1OCCCN1CCOCC1 [gefitinib],Median overall survival (OS),GBM; [7],about 39 weeks
same,Radiographic responses,GBM; [7],No radiographic responses
CCSCc1ccc2c(c1)c1c3c(c4c5cc(CSCC)ccc5n5c4c1n2[C@H]1C[C@](O)(C(=O)OC)[C@]5(C)O1)CNC3=O [CEP-1347],Neuronal survival,[1],promotes neuronal survival
EGF: Recombinant human EGF from Peprotech,Basal EGFR activation,EGFR,further increases in EGFR and ERK activation
same,Basal ERK activation,ERK,further increases in EGFR and ERK activation
N#CC(=C(/N)Sc1ccccc1N)/C(C#N)=C(\N)Sc1ccccc1N [U0126],"Cell viability, inhibitor combined with erlotinib",[2],significant cell death
same,"Cell viability, inhibitor alone",[2],resistant to JNK or ERK inhibition alone
same,"Cell viability, inhibitor combined with erlotinib",[3],a combined inhibition of EGFR with ERK or JNK leads to a significant cell death
same,"Cell viability, inhibitor alone",[3],also resistant to EGFR inhibition or JNK inhibition or ERK inhibition alone
same,"Number of viable (unstained) cells, inhibitor combined with erlotinib",GBM9 cells,decreases the number of viable cells
Etanercept,Erlotinib-induced activation of the JNK-Axl-ERK signaling pathway in presence of TNF inhibitor,[4],interruption of the erlotinib-induced activation of the JNK-Axl-ERK signaling pathway
same,"Cell viability, inhibitor combined with erlotinib",[2],sensitive to the effects of EGFR inhibition
same,"Cell viability, inhibitor combined with erlotinib",[3],sensitive to the effects of EGFR inhibition
same,"Number of viable (unstained) cells, inhibitor combined with erlotinib",GBM9 cells,decreases the number of viable cells
Nc1nc(Nc2ccc3c(c2)CC[C@@H](N2CCCC2)CC3)nn1-c1cc2c(nn1)-c1ccccc1CCC2 [R428],"Cell viability, inhibitor combined with erlotinib",[2],sensitive to erlotinib
same,"Cell viability, inhibitor alone",[2],does not affect the viability of these cells
same,"Cell viability, inhibitor combined with erlotinib",[3],sensitive to erlotinib
same,"Cell viability, inhibitor alone",[3],does not affect the viability of these cells
same,"Number of viable (unstained) cells, inhibitor combined with erlotinib",GBM9 cells,decreases the number of viable cells
O=C1CCC(N2C(=O)c3ccccc3C2=O)C(=O)N1 (stereo not shown) [thalidomide],Erlotinib-induced increase in TNF secretion in presence of thalidomide,TNF,block the erlotinib-induced increase in TNF secretion
same,Erlotinib-induced activation of the JNK-Axl-ERK signaling pathway in presence of TNF inhibitor,[4],interruption of the erlotinib-induced activation of the JNK-Axl-ERK signaling pathway
same,"Cell viability, thalidomide combined with afatinib","[2]; afatinib 100 nM, thalidomide 1 μM",sensitizes
same,"Cell viability, inhibitor combined with erlotinib",[2],had the same effect
same,"Cell viability, inhibitor combined with erlotinib",[3],had the same effect
same,"Number of viable (unstained) cells, inhibitor combined with erlotinib",GBM9 cells,decreases the number of viable cells
same,JNK-Axl-ERK signaling axis in intracranial tumors (Western blot),[5]; erlotinib 50 mg/kg,blocked the EGFR inhibition induced upregulation of the TNF-JNK-Axl-ERK signaling axis
same,"pAxl, pJNK and pERK immunostaining of brain sections",[5]; orthotopic model,inhibits erlotinib induced pAxl-pJNK-pERK activation
same,Growth of subcutaneous tumors,GBM9 subcutaneous tumors,no significant effect on the growth of tumors
same,Body weight of orthotopic models,[6],Body weight losses
same,Clinical efficacy in GBM patients,"GBM; human, in vivo",without success
same,Survival of mice,GBM9 intracranial tumors,neither erlotinib nor thalidomide alone had a significant effect
